# Test results taken from US20130281448A1, “SMALL MOLECULE COMPOUNDS FOR TARGETING INFLAMMATORY CONDITIONS” (priority 2012, published 2013).
# How the values were obtained:
# MS = assay: Case report Example 2: course of MS (symptoms, brain MRI); assay type: in vivo, human
# Description: A person was well, when they developed numbness and tingling in their lower extremities. A magnetic resonance imaging (MRI) of the brain, along with spinal fluid findings, were consistent with MS. […] From then, they were asymptomatic except for three exacerbations which also responded to intravenous methyl prednisone. They took no other medications for MS.
# (§1) They were placed on interferon β-1a. […], they developed weakness in their lower extremities and was switched to natalizumab. […] […], independent of their MS, they developed NSCLC with a genetic mutation. Natalizumab was discontinued and erlotinib was initiated at an oral dose of 150 mg daily. […] Brain MRIs with contrast two months prior to starting erlotinib, immediately prior to starting erlotinib, and after three and six months on erlotinib are unchanged.
# psoriasis = assay: Example 7: group of patients with psoriasis, placebo controlled; assay type: in vivo, human; conditions: erlotinib 150, gefitinib 250, icotinib 300 mg daily for several weeks, versus placebo
# Experimental: (§2) A group of patients with psoriasis is identified. The patients are administered erlotinib (150 mg daily), gefitinib (250 mg daily), icotinib (300 mg daily), or placebo in for several weeks. […] Following clinical improvement, the dose of erlotinib, gefitinb, or icotinib is reduced to a maintenance dose as low as 25 mg, 50 mg, or 75 mg daily, respectively.
# [1] = on the face, scalp, neck, and back; cited from earlier work
# [2] = test system: type 2 insulin requiring diabetes mellitus; assay: Case report Example 1: diabetes / insulin requirement under erlotinib; assay type: in vivo, human; conditions: person, 150 mg daily oral
# Description: (§3) A person, whose child has a history of recurrent-remitting MS, developed severe back pain. […] After one year, their serum level of antithyroid peroxidase was reduced from 1719 to 366.
# Hashimoto's thyroiditis = assay: Case report Example 1: Hashimoto's thyroiditis, serum antithyroid peroxidase under erlotinib; assay type: in vivo, human; conditions: person; 150 mg daily oral; after one year; reduced from 1719 before treatment
# Description: as §3
# Crohn's disease = assay: Example 4: patient with Crohn's disease; assay type: in vivo, human; conditions: 150 mg daily for several weeks
# Experimental: A patient is diagnosed with Crohn's disease. Erlotinib is administered in a dose of 150 mg daily for several weeks.
# [3] = test system: metastatic NSCLC with a genetic mutation; assay: Case report Example 1: metastatic NSCLC patient on daily oral erlotinib; assay type: in vivo, human; conditions: person, 150 mg daily oral
# Description: as §3
# [4] = test system: NSCLC with a genetic mutation; assay: Case report Example 2: NSCLC in MS patient on erlotinib; assay type: in vivo, human; conditions: person; oral 150 mg daily; after six months
# Experimental: as §1
# rheumatoid arthritis = assay: Example 3: patient with rheumatoid arthritis; assay type: in vivo, human; conditions: 150 mg daily for several weeks
# Experimental: A patient is diagnosed with rheumatoid arthritis. Erlotinib is administered in a dose of 150 mg daily for several weeks.
# mild plaque psoriasis = assay: Case report Example 1: psoriasis under erlotinib; assay type: in vivo, human; conditions: person, 150 mg daily oral
# Description: as §3
# multiple sclerosis = assay: Example 5: group of patients with multiple sclerosis, placebo controlled; assay type: in vivo, human; conditions: erlotinib 150, gefitinib 250, icotinib 300 mg daily for several weeks, versus placebo
# Experimental: as §2, with “multiple sclerosis” for “psoriasis”
# insulin resistance = assay: Example 6: group of patients with insulin resistance, placebo controlled; assay type: in vivo, human; conditions: erlotinib 150, gefitinib 250, icotinib 300 mg daily for several weeks, versus placebo
# Experimental: as §2, with “insulin resistance” for “psoriasis”
compound,measurement,setting,value
natalizumab,MS symptoms,"MS; patient, since the switch",asymptomatic since that time
C#Cc1cccc(Nc2ncnc3cc(OCCOC)c(OCCOC)cc23)c1 [erlotinib],clinical outcome,psoriasis,Clinical improvement is seen
same,most common adverse effect,[1],mild to moderate reversible papulopustular skin eruption
same,enhancing lesions on brain MRI,"MS; person with MS, oral 150 mg daily, after three and six months",no enhancing lesions
same,brain MRIs with contrast,"MS; person with MS, oral 150 mg daily, after three and six months versus before starting",unchanged
same,insulin requirement / new medication to control diabetes,[2]; after seven months,remains off of insulin and has not required any new medication to control their diabetes
same,insulin requirement,[2]; after ten weeks,no longer required insulin
same,serum level of antithyroid peroxidase,Hashimoto's thyroiditis,366
same,clinical outcome,Crohn's disease,Clinical improvement is seen
same,evidence of NSCLC,[3]; after seven months,no evidence of NSCLC or psoriasis
same,severe back pain,[3]; three weeks after starting,their pain abated
same,cancer status,[4],total remission
same,clinical outcome,rheumatoid arthritis,Clinical improvement is seen
same,evidence of psoriasis,mild plaque psoriasis; after seven months,no evidence of NSCLC or psoriasis
same,psoriasis,mild plaque psoriasis; three weeks after starting,their psoriasis cleared
same,clinical outcome,multiple sclerosis,Clinical improvement is seen
same,clinical outcome,insulin resistance,Clinical improvement is seen
COc1cc2ncnc(Nc3ccc(F)c(Cl)c3)c2cc1OCCCN1CCOCC1 [gefitinib],clinical outcome,psoriasis,Clinical improvement is seen
same,clinical outcome,multiple sclerosis,Clinical improvement is seen
same,clinical outcome,insulin resistance,Clinical improvement is seen
methyl prednisone,response of MS at first presentation,"MS; patient one, intravenous",achieved total remission
same,response of three MS exacerbations,"MS; patient, intravenous",responded
C#Cc1cccc(Nc2ncnc3cc4c(cc23)OCCOCCOCCO4)c1 [icotinib],clinical outcome,psoriasis,Clinical improvement is seen
same,clinical outcome,multiple sclerosis,Clinical improvement is seen
same,clinical outcome,insulin resistance,Clinical improvement is seen
